Data on two molecules can be found in US6069167A, “Use of antioxidant agents to treat cholestatic liver disease” (priority 1997, dated 2000).

The structures appear in SMILES notation. Read-outs that look alike come from different tables or passages of the source.

The subject of one series is cholestatic disorders. The conditions noted are these: cited from earlier work.
The test system of a further series is TCDC hepatic toxicity. The series is classed as in vivo, male Sprague-Dawley rats. From the text:
Young adult male Sprague-Dawley rats (150-180 gram weight) purchased from Sasco, Inc. (Omaha, Nebr.) were fed Purina Lab Chow (Ralston Purina Co., Chicago, Ill.) ad libitum for 2-3 weeks and housed in polyethylene cages with stainless steel tops on a 12-hour light-dark cycle. All rats received humane care in compliance with the guidelines of the Animal Use in Research Committee of the University of Colorado Health Sciences Center. […] TCDC is a conjugate of the bile acid most implicated in cholestatic liver injury9,11,12. TCDC was solubilized in 5% dextrose, 10% BSA, and 0.45% normal saline. TCDC was administered while rats were under light methoxyflurane anesthesia as an intravenous bolus of the desired dose in 1 to 2 minutes through the tail vein. TCDC dosing was performed between 7 and 9 am. […] Rats were divided into two treatment groups. One group was pretreated with parenteral Vitamin E (all-rac-alpha tocopherol, […], Hoffmann-LaRoche,Nutley, N.J.). The other group was not pretreated. These rats then received either vehicle or TCDC (10 μmol/[…]) by tail vein injection (as described in Example 1). […] All i.p. injections were administered under light methoxyflurane anesthesia. Following the vitamin E or saline injections, rats were randomly assigned to receive a tail vein bolus injection of either TCDC or vehicle. Rats were sacrificed four hours later and serum was analyzed for AST, ALT, total bilirubin and alkaline phosphatase. […] The serum alpha tocopherol:total lipids ratio (mg/gm) was calculated as an additional index of vitamin E status^41.

In a further series the test system is hepatic mitochondria. Put plainly: Lipid-conjugated dienes of hepatic mitochondria (lipid peroxidation). The series is classed as in vivo, male Sprague-Dawley rats. The conditions noted are these: for Lipid-conjugated dienes: 4 h. As for the experimental part:
Hepatic Mitochondria Isolation
Mitochondria were isolated from 10 grams of fresh liver from individual rats by a modification of a previously described method^27. Briefly, the liver was gently homogenized in a loose-fitting Potter-Elvehjm homogenizer in buffer containing 225 mM mannitol, 70 mM sucrose, 3 mM KH2 PO4, 2mM EDTA, 0.1% BSA, 5 mM MgCl2 (pH 7.0), filtered through cheesecloth and centrifuged at 400g×10 minutes. The supernatant was centrifuged at 10,000g for 10 minutes. The supernatant was aspirated and the pellet resuspended and centrifuged at 10,000g for 10 minutes. The resulting mitochondrial pellet was resuspended in 15 ml of buffer, divided into three tubes and added to digitonin (Sigma Chemical Company, St Louis, Mo., 0.29 mg for each gram of original liver) on wet ice×20 minutes, in order to minimize any contamination by lysosomes^28. The resulting mitochondrial preparation was washed two times in the original buffer and centrifuged at 10,000g for 10 minutes. Samples of the pellet were taken for enzyme marker analysis. Two more washes were then performed using a buffer containing 50 mM MOPS/100 mM KCI, yielding the final mitochondrial pellet.
Fresh mitochondria were analyzed for lipid peroxidation as an index of oxidant damage by the lipid-conjugated diene method of Recknagel and Ghoshal^35 with the modification of Bacon et al^36. Briefly, lipids were extracted from mitochondria pellets with chloroform and methanol (2:1, vol/vol), and the lipid in chloroform was dried under a stream of oxygen-free nitrogen^27. The dried lipid was redissolved in 1.5 ml of spectrophotometric grade cyclohexane. Absorbance from 220 to 275 nm was recorded against a cyclohexane blank on a Lambda 2 UV/is Spectrometer (Perkin-Elmer Corp., Norwalk, Conn.). Lipid concentration was approximately 0.5 mg/mi of cyclohexane. After the UV measurements, a 250 μl aliquot from each sample was analyzed for total lipid content by the method of Chiang et al.^37, and absorbance measurements were normalized to a denominator of 1.0 mg lipid per ml of cyclohexane. Lipid peroxidation was estimated by calculating the difference in absorption at 233 nm (the peak absorbance for conjugated dienes) between each rat and the mean of the values from control rats.
Because serum AST and ALT concentrations peaked at 4 hours, further evaluation of liver injury was performed at that time point Total concentrations (conjugated+free bile acids) of individual bile acids were measured in serum obtained at 4 hours by gas chromatography-mass spectroscopy (GC-MS), as previously described^30. Briefly, after serum samples were extracted with the addition of the internal standard 7-alpha, 12-alpha, dihydroxy-5 beta cholanic acid, trimethylsilyl esterification was performed. Individual bile acids were then quantified by GC or GC-MS using a Hewlett-Packard 5790 flame ionization detector equipped with a 30 meter DB-1 capillary column with internal diameter of 0.25 mm and a film thickness of 0.25 micrometers (J & W Scientific, Folsom, Calif.). For GC-MS measurements, a Hewlett-Packard 5970-A mass selective detector operating in selective ion monitoring mode was used. Results were expressed as μmol/L for each individual bile acid.
Rats were divided into two treatment groups. One group was pretreated with parenteral Vitamin E (all-rac-alpha tocopherol, Ephynal, Hoffmann-LaRoche,Nutley, N.J.). The other group was not pretreated. […]

The next series is described as follows: in vivo. The settings on record: rat. Also on record: species or system male Sprague-Dawley rats. As for the experimental part:
Rats were divided into two treatment groups. One group was pretreated with parenteral Vitamin E (all-rac-alpha tocopherol, […], Hoffmann-LaRoche,Nutley, N.J.). The other group was not pretreated. These rats then received either vehicle or TCDC (10 μmol/[…]) by tail vein injection (as described in Example 1). […] All i.p. injections were administered under light methoxyflurane anesthesia. Following the vitamin E or saline injections, rats were randomly assigned to receive a tail vein bolus injection of either TCDC or vehicle. Rats were sacrificed four hours later and serum was analyzed for AST, ALT, total bilirubin and alkaline phosphatase. […] The serum alpha tocopherol:total lipids ratio (mg/gm) was calculated as an additional index of vitamin E status^41. The liver was rapidly removed at sacrifice, the hepatic mitochondria were isolated as set forth above and analyzed for lipid-conjugated dienes as described above. A specimen of liver was also immediately frozen, protected from light and stored at -70° C. and subsequently analyzed for alpha tocopherol and reduced ubiquinol-9 by HPLC with electrochemical detection^42. The results were expressed as nmol alpha tocopherol or nmol reduced ubiquinol-9 per gram wet weight of liver.

The mark [1] stands for this setting: parenteral vitamin E pretreatment, rats receiving TCDC.

Consider `C[C@H](CCC(=O)O)[C@H]1CC[C@H]2[C@@H]3[C@@H](O)C[C@@H]4C[C@H](O)CC[C@]4(C)[C@H]3CC[C@]12C` [ursodeoxycholic acid], for which the “Hepatoprotective and choleretic effects” value with cholestatic disorders was “hepatoprotective as well as choleretic effects”.

As for `Cc1c(C)c2c(c(C)c1O)CCC(C)(CCCC(C)CCCC(C)CCCC(C)C)O2` (racemic) [Vitamin E, all-rac-alpha tocopherol], in the series on TCDC hepatic toxicity (Vitamin E/TCDC, n = 12, 4 h), the ALT turned out to be 325 ± 78 IU/L, the AST worked out at 870 ± 278 IU/L and the Bilirubin is 0.2 ± 0.02 mg/dL. For the same molecule, in the series on TCDC hepatic toxicity (setting [1]), the “Decrease in serum ALT” value is “approximately 70%” and the “Decrease in serum AST” value is listed as “approximately 70%”. Also, in the series on TCDC hepatic toxicity (rat, in vivo), the ALT is recorded as 61 ± 5 IU/L, the AST was 81 ± 2 IU/L and the Bilirubin is 0.2 ± 0.02 mg/dL. Also, the “Hepatic injury and mitochondrial lipid peroxidation, overall result” value with TCDC hepatic toxicity (vitamin E pretreatment, TCDC) was “attenuated both the hepatic injury and the severity of mitochondrial lipid peroxidation”. Besides, the Lipid-conjugated dienes in the series on hepatic mitochondria (Vitamin E/TCDC, n = 12) was 0.13 ± 0.01 delta abs. 233 nm/mg lipid. Also, the Lipid-conjugated dienes in the series with hepatic mitochondria (Vitamin E/Vehicle, n = 7) is on record as -0.03 ± 0.02 delta abs. 233 nm/mg lipid. Also, the “Mitochondrial lipid-conjugated dienes, change” value in the series on hepatic mitochondria (vitamin E pretreatment, i.v. TCDC group) is given as “significant reduction”. In the series “in vivo”, the “Hepatic alpha tocopherol concentrations, change” value is listed as “significant increases”; the “Serum vitamin E concentrations, change” value is “significant increases”; the “Serum vitamin E:total lipid ratios, change” value was “significant increases”. The Serum alpha tocopherol in the series “in vivo” (4 h) came to 13.2 ± 0.7 µg/mL. In the series “in vivo” (Serum alpha tocopherol), this molecule showed a concentration at 4 h of 9900 ± 700 ng/mL.
